Test results: patent US12239619B2, “Composition for inducing pili formation in bacterium of genus Bifidobacterium” (MORINAGA MILK INDUSTRY CO., LTD., priority 2019, dated 2025)

Assays:
Assay type in all cases: cell-based
[1] = system: Bifidobacterium longum 1-1 strain; experiment: Pili induction in cultured Bifidobacterium longum, Western blotting with anti-FimA antibody; conditions: anaerobic, 37° C.; for pili formation by Western blotting: 10 μg/mL in GAM agar medium, 24 hours (Test Example 5)
Procedure: KUHIMM culture solution (900 mL) containing human feces used in Test Example 1 was fractionated in the order of MilliQ water, 50% methanol, and 100% methanol (250 mL of each) with an activated carbon column (resin volume: 45 mL). Of each fraction, 100 μL was collected in another container, dried under reduced pressure, and then redissolved in 50 μL of MilliQ water. Subsequently, the Bifidobacterium longum 1-1 strain was cultured in GAM medium, and 50 μL of the redissolved solution of the above fraction was added to 1 mL of the bacterial solution obtained by adjusting the above culture solution at OD600=0.1, and culture was performed at 37° C. for 24 hours. After culture, the cells were collected by centrifugation (4000×g, 5 minutes).
Bifidobacterium longum 1-1 strain was anaerobically cultured at 37° C. for 24 hours on GAM agar medium containing 10 μg/mL of aromatic amino acids or the amino acid metabolite produced by Clostridium sporogenes.

[2] = system: Bifidobacterium longum 1-1 strain; experiment: Scanning electron microscope observation of pili in cultured Bifidobacterium longum; conditions: 10 μg/mL in GAM agar medium, anaerobic, 37° C., 24 hours
[3] = system: human intestinal epithelial cell line (Caco-2 or HT29-MTX); experiment: Adhesion of cultured Bifidobacterium longum to human intestinal epithelial cell line; conditions: B. longum cultured with 10 μg/mL PPA, 15 hours, 2 hours
Procedure: Furthermore, the adhesion of the cultured cells to the human intestinal epithelial cell line (Caco-2 or HT29-MTX) was evaluated. Specifically, the Bifidobacterium longum 1-1 strain was cultured on GAM medium containing 10 μg/mL of PPA at 37° C. for 15 hours. The cells were centrifuged (4000×g, 1 min, 4° C.), collected, and suspended in Dulbecco's modified Eagle's medium (DMEM) at OD600=0.5. 0.2 mL of this bacterial solution was added to a chamber slide glass in which HT29-MTX or Caac-2 cells had been cultured in a single layer, and was allowed to stand at 37° C. for 2 hours. After washing with DMEM medium, Bifidobacterium longum adhered with 4% paraformaldehyde was fixed and stained with crystal violet. The number of bacteria per well was counted under a microscope.

O=C(O)CCc1ccc(O)cc1 [3-(4-hydroxyphenyl)propionic acid]
pili formation by Western blotting [1]: pili formation was observed although less significant than in the former case

O=C(O)CCc1ccccc1 [3-phenylpropionic acid]
pili observed with scanning electron microscope [2]: large fiber-shaped pili were observed
pili formation by Western blotting [1]: pili formation was observed
concentration in the medium that clearly induced the pili formation ([1]; GAM agar medium, 24 hours): more than 0.1 μg/mL
pili polymerization ([1]; GAM agar medium, final concentration 0.01 to 80 μg/mL, 24 hours): induced pili polymerization dose-dependently
adhesion to human intestinal epithelial cell line, presence versus absence [3]: significantly larger
